Our source for the IC50 values is patent US8871751B2, “Compositions and methods relating to nuclear hormone and steroid hormone receptors including inhibitors of estrogen receptor alpha-mediated gene expression and inhibition of breast cancer” (The Board of Trustees of the University of Illinois, priority 2008, dated 2014).

The target of experiment [1] is T1, human androgen receptor (AR) binding to flARE (Homo sapiens, UniProt P10275).
T1 construct: AR assays contained 1 nM flcARE and 50 nM full-length wild-type AR; FLAG; made in house
T1 sequence (P10275 1-920): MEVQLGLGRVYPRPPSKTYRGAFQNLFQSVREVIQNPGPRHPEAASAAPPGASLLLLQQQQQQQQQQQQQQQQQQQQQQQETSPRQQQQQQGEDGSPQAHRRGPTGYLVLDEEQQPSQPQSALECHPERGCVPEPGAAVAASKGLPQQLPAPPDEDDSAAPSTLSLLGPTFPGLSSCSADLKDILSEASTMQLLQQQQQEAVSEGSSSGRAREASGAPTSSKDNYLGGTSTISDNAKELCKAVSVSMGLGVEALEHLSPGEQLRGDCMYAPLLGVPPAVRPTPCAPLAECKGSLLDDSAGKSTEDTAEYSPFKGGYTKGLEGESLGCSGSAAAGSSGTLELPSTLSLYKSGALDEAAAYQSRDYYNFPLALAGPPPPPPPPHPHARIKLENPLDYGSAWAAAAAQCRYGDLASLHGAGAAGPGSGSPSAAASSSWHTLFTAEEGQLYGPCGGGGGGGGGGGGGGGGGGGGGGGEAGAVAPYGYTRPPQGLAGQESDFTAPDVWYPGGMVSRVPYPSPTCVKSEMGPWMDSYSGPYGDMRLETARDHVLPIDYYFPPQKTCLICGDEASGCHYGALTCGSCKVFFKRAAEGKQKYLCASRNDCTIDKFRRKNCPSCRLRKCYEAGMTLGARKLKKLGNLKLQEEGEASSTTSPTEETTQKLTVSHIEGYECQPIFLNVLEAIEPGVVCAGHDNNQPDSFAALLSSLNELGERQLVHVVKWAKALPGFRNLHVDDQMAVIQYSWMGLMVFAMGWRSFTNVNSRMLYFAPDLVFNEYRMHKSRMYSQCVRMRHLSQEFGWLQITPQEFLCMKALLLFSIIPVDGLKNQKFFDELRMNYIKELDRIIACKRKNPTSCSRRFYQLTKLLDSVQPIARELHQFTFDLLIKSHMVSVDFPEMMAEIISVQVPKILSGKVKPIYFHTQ
The experiment can be described thus: FAMA: inhibition of AR binding to flcARE. To be noted: binding to HRE, 5 concentrations 0.5-10 μM, sequential method. How it is done: (§1) Dose response curves for selected compounds were carried out as described for the HTS screen except that each well contained the indicated concentration of test compound. PR assays were carried out in the same buffer used for ERα assays and contained 1 nM flcPRE and 11 nM PR-B and 100 nM progesterone. The buffer used for AR was similar but also contained 5 μM ZnCl, 5 mM NaF, 0.6 μM CHAPS and 100 nM dihydrotestosterone. AR assays contained 1 nM flcARE and 50 nM full-length wild-type AR.
(§2) Specificity was evaluated in dose-response studies by quantitative FAMA using purified full-length human PR binding to a fluorescein-labeled progesterone/glucocorticoid response element (flPRE) and full-length human androgen receptor (AR) binding to a fluorescein-labeled androgen response element (flARE).

The target in experiment [2] is T2, human PR-B binding to flPRE (Homo sapiens, UniProt P06401).
T2 construct: FLAG; made in house
T2 sequence (P06401 1-933): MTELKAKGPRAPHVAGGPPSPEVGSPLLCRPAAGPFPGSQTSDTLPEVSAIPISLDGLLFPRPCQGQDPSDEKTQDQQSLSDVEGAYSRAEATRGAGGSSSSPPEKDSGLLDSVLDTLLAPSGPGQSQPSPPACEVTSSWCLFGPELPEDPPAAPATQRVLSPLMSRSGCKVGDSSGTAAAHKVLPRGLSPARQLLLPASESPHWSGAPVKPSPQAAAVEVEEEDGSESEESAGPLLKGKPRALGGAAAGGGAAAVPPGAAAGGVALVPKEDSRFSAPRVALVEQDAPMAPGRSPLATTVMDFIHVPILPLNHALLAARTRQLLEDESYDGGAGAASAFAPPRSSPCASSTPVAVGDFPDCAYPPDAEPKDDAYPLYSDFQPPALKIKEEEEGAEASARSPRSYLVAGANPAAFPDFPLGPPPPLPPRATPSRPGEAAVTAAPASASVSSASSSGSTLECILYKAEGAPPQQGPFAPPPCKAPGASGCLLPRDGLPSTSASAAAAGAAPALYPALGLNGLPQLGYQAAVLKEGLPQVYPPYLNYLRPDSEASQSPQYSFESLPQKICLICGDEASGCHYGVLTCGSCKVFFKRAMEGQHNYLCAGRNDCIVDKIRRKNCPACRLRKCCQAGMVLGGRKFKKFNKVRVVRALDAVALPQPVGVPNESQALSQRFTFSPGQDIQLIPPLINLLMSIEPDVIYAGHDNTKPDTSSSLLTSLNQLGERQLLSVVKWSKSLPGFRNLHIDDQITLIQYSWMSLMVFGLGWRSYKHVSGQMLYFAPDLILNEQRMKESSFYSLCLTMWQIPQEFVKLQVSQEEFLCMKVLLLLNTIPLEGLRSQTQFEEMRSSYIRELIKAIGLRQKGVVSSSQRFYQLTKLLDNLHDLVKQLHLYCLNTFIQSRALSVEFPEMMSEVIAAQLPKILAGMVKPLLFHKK
The experiment can be described thus: FAMA: inhibition of PR binding to flcPRE. To be noted: binding to HRE, 5 concentrations 0.5-10 μM, sequential method. How it is done:
as §1, §2

Experiment [3] addresses T3, human ERα binding to flcERE (Homo sapiens, UniProt P03372).
T3 construct: Full-length FLAG-tagged human ERα was expressed and purified as described previously (27); FLAG; made in house
T3 sequence (P03372 1-595): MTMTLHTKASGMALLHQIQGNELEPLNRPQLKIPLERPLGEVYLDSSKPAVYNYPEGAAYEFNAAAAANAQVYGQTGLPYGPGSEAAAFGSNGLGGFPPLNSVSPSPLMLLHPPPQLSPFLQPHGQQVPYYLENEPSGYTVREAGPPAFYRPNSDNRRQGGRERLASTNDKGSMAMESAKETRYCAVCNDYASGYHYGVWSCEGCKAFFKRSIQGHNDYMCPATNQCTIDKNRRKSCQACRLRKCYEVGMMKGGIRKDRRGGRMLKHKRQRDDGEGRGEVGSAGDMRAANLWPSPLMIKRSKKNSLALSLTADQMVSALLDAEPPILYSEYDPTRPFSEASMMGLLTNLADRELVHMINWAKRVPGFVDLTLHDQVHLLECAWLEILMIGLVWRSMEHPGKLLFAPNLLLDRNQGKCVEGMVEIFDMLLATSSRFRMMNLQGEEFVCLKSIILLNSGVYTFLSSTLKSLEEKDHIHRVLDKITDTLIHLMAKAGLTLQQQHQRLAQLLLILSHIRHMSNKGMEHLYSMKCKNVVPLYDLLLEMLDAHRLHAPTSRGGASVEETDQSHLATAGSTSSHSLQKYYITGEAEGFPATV
Put plainly: FAMA: inhibition of ERα binding to flcERE. The settings on record: FAMA, binding to HRE, 5 concentrations 0.5-10 μM, sequential method; read-out: IC50 ERα. How it is done: Prior to screening, the 10 mM library stocks were diluted to produce replica libraries in 384-well plates containing each small molecule at 0.25 mM (in DMSO). In our initial studies we were concerned that forming the flcERE-ERα complex first and then adding the candidate small molecule inhibitors would miss small molecules that bind at the interface. We therefore screened using the “sequential” method in which the candidate small molecules were first incubated with ERα and followed by addition of the flcERE. The assay for binding of ERα to the flcERE is a modification of our earlier assay (27). Assays were carried out at room temperature in black wall 384-well microplates (Greiner/Bio-One) in a total volume of 10 μl in buffer containing 20 mM Tris pH 7.5, 10% glycerol, 0.2 mM EDTA, 2 mM DTT, 100 mM KCl, 0.5 ng/μl poly dl:dC, […] bovine serum albumin and 100 nM 17β-estradiol (E2). For high throughput screening, a master mix without ERα and probe was prepared at 4° C. The master mix was divided into 2 parts. ERα was added to one part to 5 nM in the final assays. 7 μl of the ERα-containing mix was then dispensed into each well of a 384-well plate on ice. 100 nl of the compounds being tested was then added using a pin-transporter (V & P Scientific, Inc, CA) to a final concentration of 2.5 μM. The samples were mixed using the pin-transporter and sedimented by centrifugation for 2 min. at 4° C. and incubated on ice for 10 min. The flcERE probe was added to the other aliquot of the mix to 1 nM. 3 μl of the mix containing the flcERE probe was added to each well containing ERα and the test compound. The samples were mixed using the pin-transporter, the plates were briefly centrifuged and incubated at room temperature for 10 min. and fluorescence anisotropy (FA) was measured using a BMG PheraStar (BMG Labtech) microplate reader (module: 485 520) with excitation at 485λ and emission at 520λ. To identify small molecules that were highly fluorescent, or quench fluorescence, fluorescence intensity was also measured.
as §1

Regarding `N#CC(C#N)=CNCCN1CCN(C=C(C#N)C#N)CC1` [Compound 343040], the concentration for half-maximal inhibition (IC50) in experiment [1], in experiment [2] and in experiment [3] was above 10 µM in each case.
As to `CC1CCCCN1.CC1CCCCN1.[Cl][Cu][Cl]` (stereo not drawn) [Compound 1826], the half-maximal inhibitory concentration (IC50) in experiment [1] came to 8 µM; in experiment [2] it was 6 µM; in experiment [3], 7 µM.
For `CCCCC(C)O` (stereo not drawn) [Compound 3706], the IC50 in experiment [1] is 1 µM; in experiment [2] it was 1.5 µM; in experiment [3], 0.8 µM.
For the compound `CCOC(=O)C(CC)(C(=O)OCC)C(C)C` [Compound 4695], the IC50 in experiment [1] is 4.8 µM; in experiment [2], 4 µM; in experiment [3] it was 2.5 µM.
On to `O=C(O)c1nn(-c2ccc(Cl)cc2)c2c1C(=O)c1ccccc1C2=O` [Compound 360494], for which the IC50 in experiment [1], in experiment [2] and in experiment [3] was above 10 µM throughout.
With `O=C(O)c1cccc2cccc(-c3cccc4cccc(C(=O)O)c34)c12` [Compound 7810], the half-maximal inhibitory concentration (IC50) in experiment [1], in experiment [2] and in experiment [3] was above 10 µM throughout.
Consider `c1ccc(-c2oc(-c3ccccc3)c(CN3CCCCC3)c2CN2CCCCC2)cc1` [Compound 7473], for which the IC50 was above 10 µM in experiment [1], above 10 µM in experiment [2] and 9 µM in experiment [3].
Turning to `CCCN(C(C)=O)c1ccccc1` [Compound 4700], the IC50 in experiment [1] was found to be 2 µM; in experiment [2], 2.7 µM; in experiment [3], 2 µM.
On to `CCCCCCC1(c2cccnc2)NC(=O)NC1=O` (stereo not drawn) [Compound 9503], for which the values for the IC50 in experiment [1], in experiment [2] and in experiment [3] were above 10 µM, above 10 µM and 2.6 µM, respectively.
Consider `CCC1CCC(C)NC1` (stereo not drawn) [Compound 6119], for which the half-inhibitory concentration (IC50) in experiment [1] was found to be 7.4 µM; in experiment [2] it was 9 µM; in experiment [3], 9 µM.
Regarding `Brc1cccs1` [Compound 4456], the figures for the IC50 in experiment [1], in experiment [2] and in experiment [3] were above 10 µM, above 10 µM and 7.5 µM, respectively.
`CC(C)/C=N/Nc1ccc([N+](=O)[O-])cc1[N+](=O)[O-]` [Compound 6122]: the IC50 was determined as 3.7 µM in experiment [1], 5.3 µM in experiment [2] and 5.8 µM in experiment [3].
Consider `O=C(O)/C=C/c1ccccc1Cl` [Compound 4792], for which the IC50 in experiment [1] was 7.5 µM; in experiment [2], above 10 µM; in experiment [3] it was above 10 µM.
Consider `CNc1ccccc1O` [Compound 3879], for which the results for the concentration for half-maximal inhibition (IC50) in experiment [1], in experiment [2] and in experiment [3] were 7.5 µM, 6.5 µM and 3.7 µM, respectively.
Consider `[Cu].c1ccc2c(c1)C1=NC2=NC2=NC(=NC3=NC(=NC4=NC(=N1)c1ccccc14)c1ccccc13)c1ccccc12` [Compound 43628], for which the IC50 in experiment [1], in experiment [2] and in experiment [3] was above 10 µM each time.
In the case of `CCN(CC)CCOc1ccc(Cl)cc1Cc1ccccc1` [Compound 9548], the IC50 was 4 µM in experiment [1], 5 µM in experiment [2] and 1 µM in experiment [3].
For the compound `O=C(Nc1cc[c]([Sb](=[O])([OH])[OH])cc1)c1ccccc1` [Compound 15596], the values for the IC50 in experiment [1], in experiment [2] and in experiment [3] were above 10 µM, above 10 µM and 5 µM, respectively.
As to `CCCCCN(CCCCC)CCC(O)c1cccc2ccccc12` (stereo not drawn) [Compound 9671], the IC50 in experiment [1], in experiment [2] and in experiment [3] was above 10 µM each time.
Regarding `CN1CCc2[nH]nc(-c3n[nH]c4c3CN(C)CC4)c2C1` [Compound 371847], the IC50 in experiment [1], in experiment [2] and in experiment [3] was above 10 µM in each case.

One may read the IC50 as the concentration at which inhibition is half-maximal.
